The text below walks through data of ChEMBL document CHEMBL1137190, “Synthesis and KCNQ2 opener activity of N-(1-benzo[1,3]dioxol-5-yl-ethyl, N-[1-(2,3-dihydro-benzofuran-5-yl)-ethyl, and N-[1-(2,3-dihydro-1H-indol-5-yl)-ethyl acrylamides” (Bioorg Med Chem Lett, 2004).

pEC50: −log10 of the molar value.

In one experiment the test system is HEK293. Put plainly: Effective concentration against whole-cell patch clamp from […] HEK293 cells. The experiment is classed as functional, cell-based, Homo sapiens. Conditions: Homo sapiens, HEK293.
Compound `C[C@H](NC(=O)/C=C/c1ccccc1F)c1ccc2c(c1)N(CC1CC1)CCO2` gave a pEC50 of 7.22.
With `C[C@H](NC(=O)/C=C/c1c(F)cccc1F)c1ccc2c(c1)CCO2`, the pEC50 is 6.48.
For the compound `C[C@H](NC(=O)/C=C/c1ccccc1)c1cccc(N2CCOCC2)c1`, the negative-log EC50 (pEC50) is 5.49.
The compound `C[C@H](NC(=O)/C=C/c1ccccc1F)c1ccc2c(c1)CCN2` showed a pEC50 of 6.37.
Compound `CCOC(=O)Nc1ccc(NCc2ccc(F)cc2)cc1N` [EZOGABINE] showed a negative logarithm of the EC50 (pEC50) of 5.89.

The same experiment, now with this note: hek293.
`C[C@H](NC(=O)/C=C/c1ccccc1Cl)c1ccc2c(c1)OCO2` gave a pEC50 of 7.70.
`C[C@H](NC(=O)/C=C/c1ccccc1Cl)c1ccc2c(c1)OCO2` (racemic) showed a pEC50 of 7.15.

The pEC50 is the EC50 on a negative log10 scale, so that one unit is a factor of ten. Low readings indicate a high EC50, high ones a low EC50.
